From patent US10342233B2, “Control of aquatic weeds using combinations of 4-amino-3-chloro-6-(4-chloro-2-fluoro-3-methoxyphenyl)pyridine-2-carboxylic acids and other aquatic herbicides” (Dow AgroSciences LLC, priority 2015, dated 2019)
Read-outs that look alike come from different tables or passages of the source.

Experiments:
Format in all cases: in vivo
[1] = tested on: Alternanthera philoxeroides (Mart.) Griseb. (alligatorweed); assay: Greenhouse in-water herbicidal activity, flooded pot system; conditions: ALRPH 5 node, 20 DAA
Protocol: (§1) Weed seeds, nutlets, or vegetative cuttings of the desired test plant species were planted in puddled soil (mud) prepared by mixing a shredded, non-sterilized mineral soil (50.5 percent silt, 25.5 percent clay, and 24 percent sand, with a pH of approximately 7.6 and an organic matter content of approximately 2.9 percent) and water at a 1:1 volumetric ratio. The prepared mud was dispensed in 365 milliliter (mL) aliquots into 480 mL non-perforated plastic pots with a surface area of 86.59 square centimeters (cm^2) leaving a headspace of 3 centimeters (cm) in each pot. Mud was allowed to dry overnight prior to planting or transplanting.
(§2) The aquatic environment was created by filling the 3 cm headspace of the pots with water. […] The plants were grown for 4-20 days in a greenhouse with an approximate 14 hour (h) photoperiod which was maintained at about 29° C. during the day and about 26° C. during the night. Nutrients were added as Osmocote® (19:6:12, N:P:K+minor nutrients) at 2 grams (g) per 480 mL pot. Water was added on a regular basis to maintain the paddy flood, and supplemental lighting was provided with overhead metal halide 1000-Watt lamps as necessary. The plants were employed for testing when they reached the second through fifth true leaf stage or 5th node stage.
(§3) Treatments consisted of the benzyl ester of 4-amino-3-chloro-5-fluoro-6-(4-chloro-2-fluoro-3-methoxy-phenyl)pyridine-2-carboxylic acid (Compound II) formulated as a suspension concentrate (SC) and various herbicidal components alone and in combination.
(§4) Measured amounts of formulated compounds were placed in individual glass vials and were dissolved in an aliquot of an aqueous mixture containing 1.25% volume per volume (v/v) Agri-Dex® crop oil concentrate. A stock solution was prepared for each treatment concentration. Applications were made by injecting an appropriate amount of the application solution into the aqueous layer of the flooded greenhouse pot. Control plants were treated in the same manner with the solvent blank.
(§5) The treated plants and control plants were placed in a greenhouse as described above and water was added as needed to maintain a flood in the pot. After approximately 20 days after application (DAA), the condition of the test plants, compared with that of the untreated plants, was determined visually and scored on a scale of 0 to 100 percent where 0 corresponds to no injury or growth reduction and 100 corresponds to complete kill.

[2] = tested on: Cyperus esculentus L. (yellow nutsedge); assay: as above; conditions: CYPES 4 lf (30% submerged), 20 DAA
Protocol: as §1, §2, §3, §4, §5

[3] = tested on: Echinochloa crus-galli (L.) P. Beauv. (barnyardgrass); conditions: ECHCG 2-5 lf (30% submerged), 20 DAA
Protocol: as §1, §2, §3, §4, §5

[4] = tested on: Leptochloa chinensis (L.) Nees (Chinese sprangletop); conditions: LEFCH 5 lf (30% submerged), 20 DAA
Protocol: as §1, §2, §3, §4, §5

[5] = tested on: Ischaemum rugosum Salisb. (saramollagrass)
Protocol: as §1, §2, §3, §4, §5

[6] = tested on: Echinochloa oryzoides (Ard.) Fritsch (early watergrass); assay: Greenhouse in-water herbicidal activity, flooded pot system; conditions: ECHOR 2-3 lf (20-30% submerged), 20 DAA
Protocol: as §1
The aquatic environment was created by filling the 3 cm headspace of the pots with water. When required to ensure good germination and healthy plants, a fungicide treatment and/or other chemical or physical treatment was applied. The plants were grown for 4-20 days in a greenhouse with an approximate 14 hour (h) photoperiod which was maintained at about 29° C. during the day and about 26° C. during the night. Nutrients were added as Osmocote® (19:6:12, N:P:K+minor nutrients) at 2 grams (g) per 480 mL pot. […]
Treatment requirements for each compound or herbicidal component were calculated based upon the rates being tested, the concentration of active ingredient or acid equivalent in the formulation, and a treatment application volume of 2 mL per compound per pot.
Measured amounts of formulated compounds were placed in individual glass vials and were dissolved in an aliquot of an aqueous mixture containing 1.25% volume per volume (v/v) Agri-Dex® crop oil concentrate. […]
as §5

[7] = 2100 ppb (elemental copper basis) in water
[8] = 4200 ppb (elemental copper basis) in water
[9] = 8300 ppb (elemental copper basis) in water

COc1c(Cl)ccc(-c2nc(C(=O)OCc3ccccc3)c(Cl)c(N)c2F)c1F [Compound II, benzyl 4-amino-3-chloro-5-fluoro-6-(4-chloro-2-fluoro-3-methoxyphenyl)pyridine-2-carboxylate] was tested, and the “Compound II Mean % Weed Control” value ([1]; 33.25 ppb in water) was 55.0%, the “Compound II Mean % Weed Control” value ([1]; 33.3 ppb in water) was 55.0% and the “Compound II Mean % Weed Control” value ([1]; 66.6 ppb in water) was 68.0%. For the same compound, the “Compound II Mean % Weed Control” value ([2]; 33.25 ppb in water) was 18.0%, the “Compound II Mean % Weed Control” value ([2]; 33.3 ppb in water) was 18.0% and the “Compound II Mean % Weed Control” value ([2]; 66.6 ppb in water) was 68.0%. For the same compound, the “Compound II Mean % Weed Control” value ([3]; 33.25 ppb in water) was 65.0%, the “Compound II Mean % Weed Control” value ([4]; 66.6 ppb in water) was 20.0% and the “Compound II Mean % Weed Control” value ([5]; ISCRU 2-3 lf (30-50% submerged), 66.6 ppb in water, 20 DAA) was 75.0%. For the same compound, the “Compound II Mean % Weed Control” value ([5]; ISCRU 2-3 lf (30-50% submerged), 133.4 ppb in water, 20 DAA) was 85.0%, the “Compound II Mean % Weed Control” value ([6]; 33.3 ppb in water) was 25.0% and the “Compound II Mean % Weed Control” value ([6]; 133.4 ppb in water) was 78.0%.
c1cc[n+]2c(c1)-c1cccc[n+]1CC2 [Diquat Dibromide, 9,10-dihydro-8a,10a-diazoniaphenanthrene] was tested, and the “Diquat Dibromide Mean % Weed Control” value ([5]; in vivo) was 0.0% and the “Diquat Dibromide Mean % Weed Control” value ([6]; 900 ppb in water) was 0.0%.
In the case of Cn1cc(-c2ccccc2)c(=O)c(-c2cccc(C(F)(F)F)c2)c1 [Fluridone, 1-methyl-3-phenyl-5-(α,α,α-trifluoro-m-tolyl)-4-pyridone], the “Fluridone Mean % Weed Control” value ([1]; 180 ppb in water) is reported as 65.0%, the “Fluridone Mean % Weed Control” value ([2]; 10 ppb in water) is reported as 0.0% and the “Fluridone Mean % Weed Control” value ([2]; 45 ppb in water) is reported as 0.0%. For the same compound, the “Fluridone Mean % Weed Control” value ([2]; 90 ppb in water) was 0.0%, the “Fluridone Mean % Weed Control” value ([5]; ISCRU 2-3 lf (30-50% submerged), 10 ppb in water, 20 DAA) was 10.0% and the “Fluridone Mean % Weed Control” value ([5]; ISCRU 2-3 lf (30-50% submerged), 45 ppb in water, 20 DAA) was 10.0%.
With O=C(O)C1C2CCC(O2)C1C(=O)O (centres unmarked) [Endothal, 7-oxabicyclo[2.2.1]heptane-2,3-dicarboxylic acid] the “Endothal Mean % Weed Control” value ([1]; 1120 ppb in water) was 0.0%, the “Endothal Mean % Weed Control” value ([1]; 4480 ppb in water) was 0.0% and the “Endothal Mean % Weed Control” value ([1]; 8960 ppb in water) was 0.0%. The “Endothal Mean % Weed Control” value ([2]; 1120 ppb in water) was 0.0%, the “Endothal Mean % Weed Control” value ([2]; 4480 ppb in water) was 0.0% and the “Endothal Mean % Weed Control” value ([5]; ISCRU 2-3 lf (30-50% submerged), 1120 ppb in water, 20 DAA) was 0.0%. The “Endothal Mean % Weed Control” value ([5]; ISCRU 2-3 lf (30-50% submerged), 4480 ppb in water, 20 DAA) was 0.0%.
With copper(II) sulfate [Copper Sulfate] the “Copper Sulfate Mean % Weed Control” value ([1]; 300 ppb in water) was 0.0%, the “Copper Sulfate Mean % Weed Control” value ([1]; 600 ppb in water) was 0.0% and the “Copper Sulfate Mean % Weed Control” value ([1]; 900 ppb in water) was 0.0%. For the same compound, the “Copper Sulfate Mean % Weed Control” value ([2]; 300 ppb in water) was 0.0% and the “Copper Sulfate Mean % Weed Control” value ([2]; 600 ppb in water) was 0.0%.
For mixed copper ethanolamine complex, the “Mixed Copper Ethanolamine Complex Mean % Weed Control” value [1, 7] was 0.0%, the “Mixed Copper Ethanolamine Complex Mean % Weed Control” value [1, 8] was 0.0% and the “Mixed Copper Ethanolamine Complex Mean % Weed Control” value [1, 9] was 0.0%. For the same compound, the “Mixed Copper Ethanolamine Complex Mean % Weed Control” value [3, 7] was 0.0%, the “Mixed Copper Ethanolamine Complex Mean % Weed Control” value [3, 8] was 0.0% and the “Mixed Copper Ethanolamine Complex Mean % Weed Control” value [3, 9] was 0.0%. The “Mixed Copper Ethanolamine Complex Mean % Weed Control” value [4, 8] was 0.0%, the “Mixed Copper Ethanolamine Complex Mean % Weed Control” value [4, 9] was 0.0% and the “Mixed Copper Ethanolamine Complex Mean % Weed Control” value ([5]; ISCRU 2-3 lf (30-50% submerged), 8300 ppb (elemental copper basis) in water, 20 DAA) was 0.0%.
